The record followed here is PMC5681660, “Reduced hepatitis B and D viral entry using clinically applied drugs as novel inhibitors of the bile acid transporter NTCP” (Scientific Reports, 2017).

Assay [1] deals with T1, human NTCP (Homo sapiens, UniProt Q14973).
T1 sequence (Q14973 1-349): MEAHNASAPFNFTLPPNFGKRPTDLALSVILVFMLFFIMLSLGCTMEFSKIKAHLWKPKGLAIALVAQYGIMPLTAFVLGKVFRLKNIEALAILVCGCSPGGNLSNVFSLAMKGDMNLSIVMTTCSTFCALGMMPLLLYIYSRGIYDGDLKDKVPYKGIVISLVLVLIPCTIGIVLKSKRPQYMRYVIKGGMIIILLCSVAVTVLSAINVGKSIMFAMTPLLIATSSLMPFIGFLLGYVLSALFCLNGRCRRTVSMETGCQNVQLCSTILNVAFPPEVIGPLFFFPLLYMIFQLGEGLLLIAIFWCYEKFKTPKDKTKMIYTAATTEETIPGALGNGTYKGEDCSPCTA
Kind of assay: Screening taurocholate uptake assay (96-well, [14C]taurocholate, 10 µM drug).

For assay [2], the target named is T1, human NTCP. In words: Screening fluorescent competitive Myrcludex B-FITC binding assay (96-well, 10 µM drug).
The mark [3] stands for this setting: Prestwick library screen, 10 µM drug, B-score of taurocholate uptake.
The mark [4] stands for this setting: combined ranking from functional and binding assay B-scores.
Where [5] appears, read: Prestwick library screen, 10 µM drug, B-score of Myrcludex B-FITC binding.
Where [6] appears, read: combined ranking from functional and binding screening assays.
The mark [7] stands for this setting: screen, 10 µM drug, taurocholate uptake.
Setting [8] is: screen, 10 µM drug, Myrcludex B-FITC binding.
Where [9] appears, read: Prestwick library screen, taurocholate uptake, 10 µM drug.
[10] abbreviates: ranking score beside the functional and binding assay B-scores of the screen.
Where [11] appears, read: Prestwick library screen, Myrcludex B-FITC binding, 10 µM drug.

Where a name gives a salt, the structure may show the parent alone. Read-outs that look alike come from different tables or passages of the source. Non-standard residues stand in square brackets, D forms with d. Residues, ends and D or L forms follow the SMILES beside them. pGlu = O=C1CC[C@@H](C(=O)O)N1; Thz = O=C(O)[C@@H]1CSCN1

In assay [1], `O=[N+]([O-])O[C@H]1CO[C@H]2[C@@H]1OC[C@H]2O[N+](=O)[O-]` [Isosorbide dinitrate] yielded a B-score functional assay of 2.183 and a Ranking score of 973.944. The compound further came in with a B-score binding assay in assay [2] of 0.166.
For the compound `CC[N+]1(C)CCCC(OC(=O)C(O)(c2ccccc2)c2ccccc2)C1` (stereo not shown) [Pipenzolate bromide], the B-score functional assay in assay [1] (setting [3]) was found to be 2.623. Also, the Ranking score in assay [1] (setting [4]) amounted to 1014.24. This compound also returned a B-score binding assay in assay [2] (setting [5]) of 0.291.
For `C[N+](C)(C)CCCCCCCCCC[N+](C)(C)C` [Decamethonium bromide], in assay [1] (setting [6]), the Ranking score is reported as 433.577. This compound had a B-score functional assay in assay [1] (setting [7]) of -0.848. In assay [2] (setting [8]), the B-score binding assay is 0.021.
Regarding `CC(C[N+](C)(C)C)OC(N)=O` (stereo not shown) [Bethanechol chloride], in assay [1] (setting [3]), the B-score functional assay worked out at 1.898. In assay [1] (setting [4]), the Ranking score worked out at 1067.05. For the same compound, the B-score binding assay in assay [2] (setting [5]) is recorded as 0.661.
For the compound `Cc1ccc(C)c(OCCCC(C)(C)C(=O)O)c1` [Gemfibrozil], in assay [1] (setting [6]), the Ranking score is given as 289.348. The B-score functional assay in assay [1] (setting [7]) is given as 0.85. The compound further yielded a B-score binding assay in assay [2] (setting [8]) of -2.286.
For the compound `CC(C)NCC(O)c1ccc(O)c(O)c1.Cl` (single isomer, unassigned; (-)) [(-)-Isoproterenol hydrochloride], the B-score functional assay in assay [1] (setting [3]) was 0.061. Moreover, the Ranking score in assay [1] (setting [4]) is reported as 845.999. In assay [2] (setting [5]), this compound returned a B-score binding assay of 0.852.
For `CN(Cc1ccc(C(C)(C)C)cc1)Cc1cccc2ccccc12` [Butenafine Hydrochloride], in that order: 1.115, 986.495 and 0.435.
Compound `CCn1cc(C(=O)O)c(=O)c2cc(F)c(N3CCNCC3)cc21` [Norfloxacin] displayed a B-score functional assay in assay [1] (setting [9]) of -0.135. For the same compound, in assay [1] (setting [10]), the Ranking score is listed as 788.093. The B-score binding assay in assay [2] (setting [11]) came to 2.084.
`C[C@]12CC[C@H](O)C[C@H]1CC[C@@H]1[C@@H]2C[C@@H](O)[C@]2(C)[C@@H](C3=CC(=O)OC3)CC[C@]12O` [Digoxigenin]: the Ranking score in assay [1] (setting [6]) came to 283.718. This compound also returned a B-score functional assay in assay [1] (setting [7]) of -0.468. The B-score binding assay in assay [2] (setting [8]) was -1.199.
In assay [1] (setting [7]), Tyloxapol registered a B-score functional assay of -1.163. The compound further had a B-score binding assay in assay [2] (setting [8]) of 0.59.
With `C[C@H](N)[C@H](O)c1ccc(O)c(O)c1` [Levonordefrin], the Ranking score in assay [1] (setting [6]) amounted to 346.693. Further, the B-score functional assay in assay [1] (setting [7]) turned out to be 0.177. This compound displayed a B-score binding assay in assay [2] (setting [8]) of -1.559.
With `CCN(CC)CCNC(=O)c1cc(Br)c(N)cc1OC` [Bromopride], the B-score functional assay in assay [1] (setting [3]) was determined as 0.033. Besides, the Ranking score in assay [1] (setting [4]) stood at 880.053. This compound yielded a B-score binding assay in assay [2] (setting [5]) of 1.459.
In assay [1] (setting [3]), `CCCCC1C(=O)N(c2ccccc2)N(c2ccc(O)cc2)C1=O` (stereo not shown) [Oxyphenbutazone] gave a B-score functional assay of 2.782. Moreover, the Ranking score in assay [1] (setting [4]) is on record as 1000.56. This compound had a B-score binding assay in assay [2] (setting [5]) of 0.23.
For `Cc1ccc(-c2cc(C(F)(F)F)nn2-c2ccc(S(N)(=O)=O)cc2)cc1` [Celecoxib], the B-score functional assay in assay [1] (setting [9]) worked out at 0.148. This compound also yielded a Ranking score in assay [1] (setting [10]) of 728.485. The compound further gave a B-score binding assay in assay [2] (setting [11]) of 0.033.
The matching figures for `C=C(C)[C@@H]1[C@H]2OC(=O)[C@@H]1[C@]1(O)C[C@H]3O[C@]34C(=O)O[C@H]2[C@]14C` [Picrotoxinin]: 0.075, 754.999 and 0.17.
`C[C@H](CS)C(=O)N1CCC[C@H]1C(=O)O` [Captopril] registered a Ranking score in assay [1] (setting [10]) of 728.08. This compound showed a B-score binding assay in assay [2] (setting [11]) of 0.648.
For the compound `N=C(N)N1CCc2ccccc2C1` [Debrisoquin sulfate], the B-score functional assay in assay [1] (setting [3]) was found to be 2.382. Moreover, the Ranking score in assay [1] (setting [4]) is recorded as 932.772. In addition, the B-score binding assay in assay [2] (setting [5]) is reported as 0.059.
The matching figures for `CN(C)CCOC1=Cc2ccccc2Sc2ccc(Cl)cc21` [Zotepine]: 0.249, 950.167 and 1.26.
On to `CN(C)CCC=C1c2ccccc2CCc2ccccc21.Cl` [Amitryptiline hydrochloride], for which, in assay [1] (setting [9]), the B-score functional assay is on record as -0.217. Moreover, the Ranking score in assay [1] (setting [10]) is on record as 769.935. Also, the B-score binding assay in assay [2] (setting [11]) is on record as 2.835.
The matching figures for `Cn1c(=O)c2c(ncn2CC(O)CO)n(C)c1=O` (stereo not shown) [Diprophylline]: -0.019, 816.025 and 1.219.
For `CCC(Cc1c(I)cc(I)c(N)c1I)C(=O)O` (stereo not shown) [Iopanoic acid], the Ranking score in assay [1] (setting [6]) worked out at 395.161. The compound also registered a B-score functional assay in assay [1] (setting [7]) of -1.985. Moreover, in assay [2] (setting [8]), the B-score binding assay was determined as 1.953.
Consider `CC(C)/N=c1\cc2n(-c3ccc(Cl)cc3)c3ccccc3nc-2cc1Nc1ccc(Cl)cc1` [Clofazimine], for which the Ranking score in assay [1] (setting [6]) is recorded as 436.188. In assay [1] (setting [7]), this compound came in with a B-score functional assay of -0.006. This compound displayed a B-score binding assay in assay [2] (setting [8]) of -0.74.
Turning to `O=C1CC[C@@H](C(=O)N2CSC[C@H]2C(=O)O)N1` [Pidotimod] ([pGlu]-[Thz]-OH), the B-score functional assay in assay [1] (setting [3]) was 1.132. In addition, the Ranking score in assay [1] (setting [4]) came to 884.212. In assay [2] (setting [5]), this compound gave a B-score binding assay of 0.063.
As to `Cn1nnc2c(C(N)=O)ncn2c1=O` [Temozolomide], the B-score functional assay in assay [1] (setting [3]) is 0.533. In assay [1] (setting [4]), the Ranking score came to 906.245. Further, the B-score binding assay in assay [2] (setting [5]) was found to be 0.415.
As for `Cc1ccccc1OCC(O)CO` (stereo not shown) [Mephenesin], the B-score functional assay in assay [1] (setting [9]) is -0.317. Moreover, the Ranking score in assay [1] (setting [10]) is given as 689.632. The compound also gave a B-score binding assay in assay [2] (setting [11]) of 1.192.
The matching figures for `CN(C)[C@@H]1C(O)=C(C(N)=O)C(=O)[C@@]2(O)C(O)=C3C(=O)c4c(O)cccc4[C@@](C)(O)[C@H]3C[C@@H]12` [Tetracycline hydrochloride]: 0.067, 755.57 and 0.201.
Turning to `CC[C@H]1OC(=O)[C@H](C)[C@@H](O[C@H]2C[C@@](C)(OC)[C@@H](O)[C@H](C)O2)[C@H](C)[C@@H](O[C@@H]2O[C@H](C)C[C@H](N(C)C)[C@H]2O)[C@](C)(OC)C[C@@H](C)C(=O)[C@H](C)[C@@H](O)[C@]1(C)O` [Clarithromycin], the Ranking score in assay [1] (setting [6]) is 370.485. Besides, in assay [1] (setting [7]), the B-score functional assay is reported as -1.781. The compound also gave a B-score binding assay in assay [2] (setting [8]) of 0.501.
Consider `OCC(O)CN1CCN(c2ccccc2)CC1` (racemic) [Dropropizine (R,S)], for which, in assay [1] (setting [9]), the B-score functional assay came to 0.232. In assay [1] (setting [10]), the Ranking score is on record as 761.407. In assay [2] (setting [11]), this compound yielded a B-score binding assay of 0.054.
`CC(C)NC[C@H](O)COc1ccc(CC(N)=O)cc1` [(S)-(-)-Atenolol]: the Ranking score in assay [1] (setting [6]) was determined as 412.97. In assay [1] (setting [7]), this compound gave a B-score functional assay of -0.386. The compound further displayed a B-score binding assay in assay [2] (setting [8]) of -0.394.
The matching figures for `CC(C)(Oc1ccc(CCNC(=O)c2ccc(Cl)cc2)cc1)C(=O)O` [Bezafibrate]: 430.871, -1.123 and 0.184.
